Test results reported in PubChem BioAssay (NCI).
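Exposure lasted 48 hours, with cells grown in 96-well plates and compounds tested at five concentrations. TGI: total growth inhibition.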 Where a SMILES comes first, the peptide text is derived from it. Bridges are numbered along the chain shown (N, C = ends). [ ]: non-standard residue; d: D form. Aib = CC(C)(N)C(=O)O; βAla = NCCC(=O)O

How the values were obtained:
Test in all cases: NCI tumour cell line growth inhibition, 48 h
786-0 renal = system: 786-0 renal
HT29 colon = system: HT29 colon
SNB-75 CNS = system: SNB-75 CNS
HCT-116 colon = system: HCT-116 colon
HOP-92 NSCLC = system: HOP-92 NSCLC
MALME-3M melanoma = system: MALME-3M melanoma
SF-539 CNS = system: SF-539 CNS
SK-MEL-28 melanoma = system: SK-MEL-28 melanoma
NCI-H226 lung = system: NCI-H226 lung
M14 melanoma = system: M14 melanoma
NCI/ADR-RES ovarian = system: NCI/ADR-RES ovarian
HCC-2998 colon = system: HCC-2998 colon
K-562 leukemia = system: K-562 leukemia
KM12 colon = system: KM12 colon
SF-295 CNS = system: SF-295 CNS
SR leukemia = system: SR leukemia

SMILES | TGI (786-0 renal) [µM] | TGI (HT29 colon) [µM] | TGI (SNB-75 CNS) [µM] | TGI (HCT-116 colon) [µM] | TGI (HOP-92 NSCLC) [µM] | TGI (MALME-3M melanoma) [µM] | TGI (SF-539 CNS) [µM] | TGI (SK-MEL-28 melanoma) [µM] | TGI (NCI-H226 lung) [µM] | TGI (M14 melanoma) [µM] | TGI (NCI/ADR-RES ovarian) [µM] | TGI (HCC-2998 colon) [µM] | TGI (K-562 leukemia) [µM] | TGI (KM12 colon) [µM] | TGI (SF-295 CNS) [µM] | TGI (SR leukemia) [µM]
Cc1ccc2c(c1)SC1=Nc3sc4cc(C)ccc4[n+]3CN12 | > 100 | 28.4 | 64.5 | 35 | 68 | 4.63 | 25.4 | 29.2 | 75.2 | 19.1 | > 100 | 6.62 |  |  |  | 
CC(=O)OC[C@H]1CN(OC(C)=O)C[C@@H](n2cc(C)c(=O)[nH]c2=O)O1 | > 100 |  | > 100 | > 100 |  |  | > 100 | > 100 | > 100 | > 100 |  | > 100 | > 100 | > 100 | > 100 | 
OC12c3ccccc3C1CCCCC2N1CCCC1 (configuration not stated) | > 100 | > 100 | > 100 | > 100 |  | > 100 |  | > 100 | > 100 | > 100 |  |  |  | > 100 | > 100 | > 100
CC1(C)NC(=O)C(NC(=O)C(N)CC(=O)O)CCCCNC(=O)CCNC1=O (configuration not stated) (H-DK[Aib][βAla]; lactam 2-C; configuration not given here) | > 100 | > 100 | > 100 | > 100 | > 100 | > 100 | > 100 | > 100 | > 100 | > 100 | > 100 |  | > 100 | > 100 | > 100 | 
NC1N=C(c2ccc(Cl)cc2)C2=C(N1)c1ccccc1CC2 (configuration not stated) | > 73.1 | 28.4 | > 22.7 | > 56.9 | > 100 | > 100 | > 100 | > 100 | 54.3 | > 59.3 | > 100 | 18.5 | > 26.1 | > 67 | > 100 | 
CC1CC(N)=C(C#N)C1(C#N)C#N (configuration not stated) | > 100 | > 100 | > 100 | > 100 | > 100 | > 100 | > 100 |  | > 100 | > 100 | > 100 | > 100 | > 100 | > 100 | > 100 | 
COc1ccc(CNc2cnc3cc(N)ccc3n2)cc1 | > 100 | > 100 | > 100 | > 100 |  | > 100 | > 100 | > 100 | > 100 | > 100 |  | > 100 | > 100 | > 100 | > 100 | > 100
N#CC(c1ccccc1)N(CCCCCCN(C(=O)c1ccccc1)C(C#N)c1ccccc1)C(=O)c1ccccc1 (configuration not stated) | > 100 | > 100 | > 100 | 83.4 | 50.3 | > 100 | > 100 | > 100 | > 100 | > 100 | 51.2 | 48.1 | > 100 | > 100 | > 100 | 
COc1cccc(/C=N/n2c(Cc3ccccc3)n[nH]c2=O)c1 | > 100 | > 100 | 61.2 | > 100 |  | > 100 | > 100 | > 100 | > 25.6 | > 100 | > 100 | > 100 | > 100 | > 100 | > 100 | 
N#CC12C(=O)NC(=O)C1(C#N)C1C=CC2CC1 (configuration not stated) | > 100 | > 100 | > 100 | > 100 |  | > 100 | > 100 | > 100 | > 100 | > 100 | > 100 |  |  | > 100 | > 100 | > 100
O=c1nc2n3c4c(cccc4nc-2c(=O)[nH]1)CCC3 | > 100 | > 100 | > 100 | > 100 |  | 39.2 | > 100 | > 100 | > 100 | > 100 | > 100 | > 100 | > 100 | > 100 | > 100 | 
CC(=O)Nc1ccc2c3c(cc(O)c2c1)N(C(=O)CCCC(=O)N1CC(CCl)c2c1cc(O)c1cc(NC(C)=O)ccc21)CC3CCl (configuration not stated) | 0.195 |  | < 0.0262 |  |  | 0.0318 | 0.0964 | > 100 |  | 0.0175 | > 100 |  | > 100 | 11.6 |  | < 0.01
O=c1oc2ccc3ccccc3c2cc1-c1nnc(Nc2ccccc2)s1 | 31.6 | > 100 |  | 52.4 |  |  |  |  |  | > 100 | > 100 | > 100 | > 100 | > 100 | 83.3 | 81.7
